This passage reports ED50, IC50 and HD50 results from patent US6451854B1, “α-amino acid phenyl ester derivatives” (Akzo Nobel N.V., priority 1998, dated 2002).

The term IC50 denotes the concentration at which inhibition is half-maximal.

Counter-ions that a name gives are not always drawn. Some results are limits rather than exact numbers.

One assay relates to mice. Nature of the assay: hypnotic activity: loss of righting reflex after intravenous administration in mice. Format: in vivo. As to conditions: dose causing loss of righting reflex for minimum 30 seconds in 50% of mice, intravenous injection over 10 seconds; for ED50: Mus musculus, iv, read-out: HD50 (the source's name). The procedure:
The hypnotic potency of the α-amino acid phenyl ester derivatives of the invention was determined upon their intravenous administration in mice. The dose required to cause a loss of righting reflex for a minimum period of 30 seconds in 50% of treated mice after intravenous injection over 10 seconds was determined. This dose is termed the HD50 (hypnotic dose50) and is expressed in μmol.kg^−1.

The target in a further assay is GABAA receptors. Briefly: inhibition of [35S]-TBPS binding to rat whole brain membranes. As to conditions: concentration required to inhibit 50% of [35S]-TBPS binding. An excerpt: γ-Aminobutyric acid (GABA) is the major inhibitory neurotransmitter within the central nervous system and it is probable that compounds potentiating the effects of GABA at GABAA receptors will induce anaesthesia (S. A. Zimmerman, M. V. Jones and N. L. Harrison, J. Pharmacol. Exp. Therap. 1994, 270, 987-991; N. P. Franks and W. R. Lieb, Nature 1994, 367, 607-614). Indeed there is compelling evidence that many hypnotics exert their biological activity via modulation of GABAA receptors, including steroids, barbiturates, benzodiazepines and propofol (D. L. Tanelian, P. Kosek, I. Mody and M. B. Maclver, Anesthesiology 1993, 78, 757-776).
The in vitro effect of the compounds of the invention at GABAA receptors was assessed through determination of their ability to inhibit [^35S]-TBPS ([^35S]-tert-butyl bicyclophosphorothionate) binding to rat whole brain membranes. The concentration of α-amino acid phenyl ester derivative required to inhibit 50% of binding of [^35S]-TBPS was determined. These in vitro experiments were carried out as described in detail by Anderson et al., J.Med.Chem. 1997, 40, 1668-1681.

`COCCN(CCOC)C(C)C(=O)Oc1c(OC)cccc1OC` (racemic) [Example 7f, (±)-2-[N-bis(2-methoxyethyl)amino]propionic acid, 2,6-dimethoxyphenyl ester hydrochloride (1:1) salt]: the ED50 with mice is 55 µmol/kg. Further, the half-maximal inhibitory concentration (IC50) at GABAA receptors is under 100 µM.
Take `COc1cccc(OC)c1OC(=O)C(C)N1CCOCC1` (stereo not drawn) [Reference, 2,6-dimethoxyphenyl 2-morpholinopropionate, reference compound]: in the assay with mice, the ED50 is 139 µmol/kg. Further, the 50% inhibitory concentration (IC50) on GABAA receptors was found to be 766 µM.
Taken in the same sequence, the figures for `CCOc1cccc(OCC)c1OC(=O)C(CC)N(CCOC)CCOC` (racemic) [Example 7n, (±)-2-[N-bis(2-methoxyethyl)amino]butyric acid, 2,6-diethoxyphenyl ester hydrochloride (1:1) salt] were 27 µmol/kg and 20 µM.
For the compound `CCCCC(C(=O)Oc1c(OC)cccc1OC)N(CCOC)CCOC.Cl` (stereo not drawn) [Example 7ai, ξ-2-[N-bis(2-methoxyethyl)amino]hexanoic acid, 2,6-dimethoxyphenyl ester hydrochloride (1:1) salt], the HD50 in the assay on mice was determined as 47 µmol/kg.
Same read-out and setting: the same measure for `CCCCC(C(=O)Oc1c(OC)cccc1OC)N(CCOC)CCOC.Cl` (stereo not drawn) [Example 7ah, ξ-2-[N-bis(2-methoxyethyl)amino]hexanoic acid, 2,6-dimethoxyphenyl ester hydrochloride (1:1) salt]: 8 µmol/kg; for `CCCCC(C(=O)Oc1c(OC)cc(C)cc1OC)N(CCOC)CCOC.Cl` (racemic) [Example 7ag, (±)-2-[N-bis(2-methoxyethyl)amino]hexanoic acid, 2,6-dimethoxy-4-methylphenyl ester hydrochloride (1:1) salt]: 34 µmol/kg.
On to `COc1cc(C)cc(OC)c1OC(=O)C(C)N(C)Cc1ccccc1` (racemic) [Example 7g, (±)-2-[N-methylbenzylamino]propionic acid, 2,6-dimethoxy-4-methylphenyl ester hydrochloride (1:1) salt], for which, in the assay with mice, the ED50 came to 45 µmol/kg. Further, the IC50 at GABAA receptors is 22 µM.
In the case of `CCOCCN(CCOCC)C(CC)C(=O)Oc1c(OC)cccc1OC` (racemic) [Example 7l, (±)-2-[N-bis(2-ethoxyethyl)amino]butyric acid, 2,6-dimethoxyphenyl ester hydrochloride (1:1) salt], the IC50 on GABAA receptors was about 100 µM.
Turning to `COCCN(CCOC)C(C(=O)Oc1c(OC)cccc1OC)C(C)C` (racemic) [Example 7u, (±)-3-methyl-2-[N-bis(2-methoxyethyl)amino]butyric acid, 2,6-dimethoxyphenyl ester hydrochloride (1:1) salt], in the assay with mice, the ED50 came out at 27 µmol/kg. For the same compound, on GABAA receptors, the IC50 amounted to 100 µM.
Compound `CCOCCN(CCOCC)C(C)C(=O)Oc1c(OC)cccc1OC` (single isomer, unassigned; (-)) [Example 7x, (−)-2-[N-bis(2-ethoxyethyl)amino]propionic acid, 2,6-dimethoxyphenyl ester hydrochloride (1:1) salt] registered an HD50 in the assay with mice of 46 µmol/kg. At GABAA receptors, the concentration for half-maximal inhibition (IC50) is under 100 µM.
For the compound “(±)-2-[N-bis(2-methoxyethyl amino]-3-methylbutyric acid, 2,6-dimethoxy-4-methylphenylester hydrochloride (1:1) salt [Example 7al]”, in the assay on mice, the HD50 was found to be 44 µmol/kg.
For the compound `COCCN(C)C(C)C(=O)Oc1c(OC)cccc1OC.Cl` (stereo not drawn) [Example 7p, 2-[N-methyl-(2-methoxy)ethylamino]propionic acid, 2,6-dimethoxyphenyl ester hydrochloride (1:1) salt], the HD50 in the assay on mice was found to be 72 µmol/kg. Moreover, the half-maximal inhibitory concentration (IC50) on GABAA receptors is about 100 µM.
`COCCN(C)C(CC(C)C)C(=O)Oc1c(OC)cc(C)cc1OC.Cl` (racemic) [Example 7ak, (±)-2-[N-(2-methoxyethyl)-N-methylamino]-4-methylpentanoic acid, 2,6-dimethoxy-4-methylphenylester hydrochloride (1:1) salt] returned an HD50 in the assay with mice of 28 µmol/kg.
For the compound `CCC(C(=O)Oc1c(OC)cc(C)cc1OC)N(CCOC)CCOC` (racemic) [Example 7b, (±)-2-[N-bis(2-methoxyethyl)amino]butyric acid, 2,6-dimethoxy-4-methylphenyl ester hydrochloride (1:1) salt], the ED50 in the assay on mice was 22 µmol/kg. Besides, at GABAA receptors, the IC50 was 18 µM.
In the case of `CCCC(C(=O)Oc1c(OC)cc(C)cc1OC)N(CCOC)CCOC.Cl` (racemic) [Example 7af, (±)-2-[N-bis(2-methoxyethyl)amino]pentanoic acid, 2,6-dimethoxy-4-methylphenyl ester hydrochloride (1:1) salt], the HD50 in the assay on mice is 34 µmol/kg.
Regarding `COCCN(CCOC)[C@H](C)C(=O)Oc1c(OC)cc(C)cc1OC` [Example 7y, R-(+)-2-[N-bis(2-methoxyethyl)amino]propionic acid, 2,6-dimethoxy-4-methylphenyl ester hydrochloride (1:1) salt], the ED50 with mice turned out to be 18 µmol/kg. The IC50 on GABAA receptors is under 100 µM.
For `CCN(CC)C(C)C(=O)Oc1c(OC)cc(C)cc1OC` (racemic) [Example 7j, (±)-2-[diethylamino]propionic acid, 2,6-dimethoxy-4-methylphenyl ester hydrochloride (1:1) salt] the same measures were 43 µmol/kg and under 50 µM.
For `COCCN(CCOC)C(C)C(=O)Oc1c(OC)cc(C)cc1OC` (racemic) [Example 7e, (±)-2-[N-bis(2-methoxyethyl)amino]propionic acid, 2,6-dimethoxy-4-methylphenyl ester hydrochloride (1:1) salt] the same measures were 52 µmol/kg and under 100 µM.
In turn, `CCCCC(C(=O)Oc1c(OC)cccc1OC)N(CCOC)CCOC.Cl` (racemic) [Example 7ad, (±)-2-[N-bis(2-methoxyethyl)amino]hexanoic acid, 2,6-dimethoxyphenyl ester hydrochloride (1:1) salt] yielded an HD50 in the assay on mice of under 12 µmol/kg.
`CCOCCN(CCOCC)[C@@H](CC)C(=O)Oc1c(OC)cccc1OC` [Example 7aa, S-(−)-2-[N-bis(2-ethoxyethyl)amino]butyric acid, 2,6-dimethoxyphenyl ester hydrochloride (1:1) salt]: the ED50 in the assay with mice came to 22 µmol/kg. Besides, on GABAA receptors, the concentration for half-maximal inhibition (IC50) was found to be 11 µM.
Taken in the same sequence, the figures for `CCC(C(=O)Oc1c(OC)cc(OC)cc1OC)N(CCOC)CCOC` (racemic) [Example 7t, (±)-2-[N-bis(2-methoxyethyl)amino]butyric acid, 2,4,6-trimethoxyphenyl ester hydrochloride (1:1) salt] were 21 µmol/kg and 14 µM.
Consider `COCCN(CCOC)C(CC(C)C)C(=O)Oc1c(OC)cc(C)cc1OC.Cl` (racemic) [Example 7aj, (±)-2-[N-bis(2-methoxyethyl)amino]4-methylpentanoic acid, 2,6-dimethoxy-4-methylphenylester hydrochloride (1:1) salt], for which the HD50 entry with mice is “convulsant”.
Still for that read-out and setting: then `CCC(C(=O)Oc1c(OC)cccc1OC)N(CC(C)OC)CC(C)OC.Cl` (racemic) [Example 7ae, (±)-2-[N-bis(2-methoxypropyl)amino]butyric acid, 2,6-dimethoxyphenyl ester hydrochloride (1:1) salt], with 27 µmol/kg.
